Results taken from US9199962B2, “Substituted azaheterocycles for the treatment of cancer” (Merck Patent GmbH, priority 2011, dated 2015).
pIC50: −log10 of the molar value. Blank lines part the entries; values can stand above or below the compound they belong to.

Biological target: T1, GST-FAK (N-terminal GST fusion with truncated human FAK (376-1052 (end) amino acids)) (Homo sapiens, UniProt Q05397)
T1 construct: truncated human FAK (376-1052 (end) amino acids)
Assay: Biochemical enzyme assay for FAK activity (Caliper LC3000 mobility shift)
Conditions: Table 1; 100 uM ATP; read-out: FAK IC50
Procedure: 1. Biochemical Enzyme Assays for FAK Activity
The FAK assays described here are performed on two Caliper Life Sciences systems, the LC3000 and the EZ Reader II. These provide data on enzyme activity via measurement of the relative amounts of phosphorylated or unphosphorylated fluorescently labelled substrate peptide at the end of an enzymatic reaction. These different states of peptide are resolved by applying a potential difference across the sample. The presence of the charged phosphate group on the product (as opposed to the substrate) causes different peptide mobility between the two peptides. This is visualized by excitation of the fluorescent label on the substrate and product peptides and represented as peaks within the analysis software.
In order to measure inhibitor activity of FAK, inhibitors in the Caliper Life Sciences LC3000, a TTP Mosquito liquid handling instrument is used to place 0.25 ul of the appropriate concentration of inhibitor in 100% DMSO (for a dose response curve calculation) into each well of a 384-well plate. To this reaction components are added to a final volume of 25 ul: • 0.067 ng/ul GST-FAK (N-terminal GST fusion with truncated human FAK (376-1052 (end) amino acids)) • 100 uM ATP • 1 mM DTT • 1 mM MgCl2 • 1 uM substrate peptide (sequence FITC-KGWMEDYDYVHLQGKK-(CONH2)SEQ ID NO: 1)) • 1 mM FERM peptide (sequence NH2-GATQSFIIR-COOH (SEQ ID NO: 2)) • 100 mM HEPES pH 7.5 • 0.015% Brij-35
The reaction is incubated for 90 min at 25 C, and then stopped by the addition of 70 ul of Stop buffer (100 mM HEPES pH 7.5, 0.015% Brij-35, 10 mM EDTA).
The plate is read on a Caliper LC 3000 in an Off-Chip mobility shift assay format, using the following parameters for a 12-sipper chip: screening pressure—1.9 psi, upstream voltage—3000, downstream voltage—700. These conditions cause unphosphorylated substrate and phosphorylated product peptide to resolve as separate peaks allowing direct measurement of percentage of conversion of substrate to product. The percent conversion can be plotted against concentration of inhibitor to produce a sigmoid dose response curve, from which an IC50 can be calculated using XLFit for Microsoft Excel.

T1 sequence (Q05397 376-1052): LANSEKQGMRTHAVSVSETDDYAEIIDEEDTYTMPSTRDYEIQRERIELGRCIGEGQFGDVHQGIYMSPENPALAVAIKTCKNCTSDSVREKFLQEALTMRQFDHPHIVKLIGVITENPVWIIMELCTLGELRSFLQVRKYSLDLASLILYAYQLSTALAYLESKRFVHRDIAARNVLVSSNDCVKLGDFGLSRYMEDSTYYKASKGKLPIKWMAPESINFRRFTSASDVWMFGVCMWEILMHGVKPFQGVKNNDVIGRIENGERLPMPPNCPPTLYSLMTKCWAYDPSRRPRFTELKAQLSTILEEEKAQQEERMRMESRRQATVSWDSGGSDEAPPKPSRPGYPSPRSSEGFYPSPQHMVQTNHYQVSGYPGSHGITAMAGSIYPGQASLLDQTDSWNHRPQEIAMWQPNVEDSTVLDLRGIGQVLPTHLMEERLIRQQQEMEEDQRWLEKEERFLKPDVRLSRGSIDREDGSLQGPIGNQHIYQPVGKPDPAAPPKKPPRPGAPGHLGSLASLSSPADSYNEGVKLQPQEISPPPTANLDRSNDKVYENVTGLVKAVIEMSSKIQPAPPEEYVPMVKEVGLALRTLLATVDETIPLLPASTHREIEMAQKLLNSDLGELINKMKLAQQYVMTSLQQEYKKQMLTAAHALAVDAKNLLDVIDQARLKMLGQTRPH

Compound: CC1(C)Cc2cccc(CNc3ccnc(-c4cncc(F)c4)n3)c2O1 [Compound 8, (2,2-Dimethyl-2,3-dihydro-benzofuran-7-ylmethyl)-[2-(5-fluoro-pyridin-3-yl)-pyrimidin-4-yl]-amine]
pIC50: < 5.00

Compound: Fc1cncc(-c2nccc(NCc3cccc(Oc4cnccn4)c3)n2)c1 [Compound 9, [2-(5-Fluoro-pyridin-3-yl)-pyrimidin-4-yl]-[3-(pyrazin-2-yloxy)-benzyl]-amine]
pIC50: < 5.00

Compound: Fc1cncc(-c2nccc(NCc3ccc(N4CCOCC4)cc3)n2)c1 [Compound 10, [2-(5-Fluoro-pyridin-3-yl)-pyrimidin-4-yl]-(4-morpholin-4-yl-benzyl)-amine]
pIC50: < 5.00

Compound: Fc1cncc(-c2nccc(NCc3cccc(-n4cccn4)c3)n2)c1 [Compound 11, [2-(5-Fluoro-pyridin-3-yl)-pyrimidin-4-yl]-(3-pyrazol-1-yl-benzyl)-amine]
pIC50: < 5.00

Compound: Fc1cncc(-c2nccc(NCc3ccc4c(c3)OCCO4)n2)c1 [Compound 12, (2,3-Dihydro-benzo[1,4]dioxin-6-ylmethyl)-[2-(5-fluoro-pyridin-3-yl)-pyrimidin-4-yl]-amine]
pIC50: < 5.00

Compound: O=C(c1cncc(-c2nccc(NCc3ccc(Oc4ccc(F)cc4)cc3)n2)c1)N1CCOCC1 [Compound 13, (5-{4-[4-(4-Fluoro-phenoxy)-benzylamino]-pyrimidin-2-yl}-pyridin-3-yl)-morpholin-4-yl-methanone]
pIC50: < 5.00

Compound: O=C(c1cncc(-c2nccc(NCc3ccc(N4CCOCC4)cc3)n2)c1)N1CCOCC1 [Compound 14, Morpholin-4-yl-{5-[4-(4-morpholin-4-yl-benzylamino)-pyrimidin-2-yl]-pyridin-3-yl}-methanone]
pIC50: < 5.00

Compound: O=C(c1cncc(-c2nccc(NCc3ccc4c(c3)OCCO4)n2)c1)N1CCOCC1 [Compound 15, (5-{4-[(2,3-Dihydro-benzo[1,4]dioxin-6-ylmethyl)-amino]-pyrimidin-2-yl}-pyridin-3-yl)-morpholin-4-yl-methanone]
pIC50: < 5.00

Compound: COc1cncc(-c2nccc(NCc3cccc4c3OC(C)(C)C4)n2)c1 [Compound 17, (2,2-Dimethyl-2,3-dihydro-benzofuran-7-ylmethyl)-[2-(5-methoxy-pyridin-3-yl)-pyrimidin-4-yl]-amine]
pIC50: < 5.00

Compound: CC1(C)Cc2cccc(CNc3ccnc(-c4cncc(Cl)c4)n3)c2O1 [Compound 18, [2-(5-Chloro-pyridin-3-yl)-pyrimidin-4-yl]-(2,2-dimethyl-2,3-dihydro-benzofuran-7-ylmethyl)-amine]
pIC50: < 5.00

Compound: Clc1cncc(-c2nccc(NCc3cccc(Oc4cnccn4)c3)n2)c1 [Compound 19, [2-(5-Chloro-pyridin-3-yl)-pyrimidin-4-yl]-[3-(pyrazin-2-yloxy)-benzyl]-amine]
pIC50: < 5.00

Compound: Clc1cncc(-c2nccc(NCc3ccc(N4CCOCC4)cc3)n2)c1 [Compound 20, [2-(5-Chloro-pyridin-3-yl)-pyrimidin-4-yl]-(4-morpholin-4-yl-benzyl)-amine]
pIC50: < 5.00

Compound: O=C(c1cncc(-c2nccc(NCc3ccc(Cl)cc3F)n2)c1)N1CCOCC1 [Compound 22, {5-[4-(4-Chloro-2-fluoro-benzylamino)-pyrimidin-2-yl]-pyridin-3-yl}-morpholin-4-yl-methanone]
pIC50: < 5.00

Compound: O=C(c1cncc(-c2nccc(NCc3cccc(Oc4cnccn4)c3)n2)c1)N1CCOCC1 [Compound 23, Morpholin-4-yl-(5-{4-[3-(pyrazin-2-yloxy)-benzylamino]-pyrimidin-2-yl}-pyridin-3-yl)-methanone]
pIC50: < 5.00

Compound: Fc1ccc(Oc2ccc(CNc3ccnc(-c4cncc(C(F)(F)F)c4)n3)cc2)cc1 [Compound 25, [4-(4-Fluoro-phenoxy)-benzyl]-[2-(5-trifluoromethyl-pyridin-3-yl)-pyrimidin-4-yl]-amine]
pIC50: < 5.00

Compound: CC1(C)Cc2cccc(CNc3ccnc(-c4cncc(C(F)(F)F)c4)n3)c2O1 [Compound 26, (2,2-Dimethyl-2,3-dihydro-benzofuran-7-ylmethyl)-[2-(5-trifluoromethyl-pyridin-3-yl)-pyrimidin-4-yl]-amine]
pIC50: < 5.00

Compound: FC(F)(F)c1cncc(-c2nccc(NCc3cccc(Oc4cnccn4)c3)n2)c1 [Compound 27, [3-(Pyrazin-2-yloxy)-benzyl]-[2-(5-trifluoromethyl-pyridin-3-yl)-pyrimidin-4-yl]-amine]
pIC50: < 5.00

Compound: FC(F)(F)c1cncc(-c2nccc(NCc3ccc(N4CCOCC4)cc3)n2)c1 [Compound 28, (4-Morpholin-4-yl-benzyl)-[2-(5-trifluoromethyl-pyridin-3-yl)-pyrimidin-4-yl]-amine]
pIC50: < 5.00

Compound: FC(F)(F)c1cncc(-c2nccc(NCc3ccc4c(c3)OCCO4)n2)c1 [Compound 30, (2,3-Dihydro-benzo[1,4]dioxin-6-ylmethyl)-[2-(5-trifluoromethyl-pyridin-3-yl)-pyrimidin-4-yl]-amine]
pIC50: < 5.00

Compound: Fc1ccc(Oc2ccc(CNc3ccnc(-c4cncc(Cl)c4)n3)cc2)cc1 [Compound 31, [2-(5-Chloro-pyridin-3-yl)-pyrimidin-4-yl]-[4-(4-fluoro-phenoxy)-benzyl]-amine]
pIC50: < 5.00

Compound: O=C(c1cncc(-c2nccc(NCc3cccc(-n4cccn4)c3)n2)c1)N1CCOCC1 [Compound 34, Morpholin-4-yl-{5-[4-(3-pyrazol-1-yl-benzylamino)-pyrimidin-2-yl]-pyridin-3-yl}-methanone]
pIC50: < 5.00

Further lines, results first:

pIC50: 5.00 to 6.00
Compound: COc1cncc(-c2nccc(NCc3ccc(OC)c(F)c3F)n2)c1 [Compound 1, (2,3-Difluoro-4-methoxy-benzyl)-[2-(5-methoxy-pyridin-3-yl)-pyrimidin-4-yl]-amine]

pIC50: < 5.00
Compound: COc1cncc(-c2nccc(NCc3ccc(Oc4ccc(F)cc4)cc3)n2)c1 [Compound 2, [4-(4-Fluoro-phenoxy)-benzyl]-[2-(5-methoxy-pyridin-3-yl)-pyrimidin-4-yl]-amine]

pIC50: < 5.00
Compound: COc1cncc(-c2nccc(NCc3cccc(Oc4cnccn4)c3)n2)c1 [Compound 3, [2-(5-Methoxy-pyridin-3-yl)-pyrimidin-4-yl]-[3-(pyrazin-2-yloxy)-benzyl]-amine]

pIC50: < 5.00
Compound: COc1cncc(-c2nccc(NCc3ccc(N4CCOCC4)cc3)n2)c1 [Compound 4, [2-(5-Methoxy-pyridin-3-yl)-pyrimidin-4-yl]-(4-morpholin-4-yl-benzyl)-amine]

pIC50: 5.00 to 6.00
Compound: COc1cncc(-c2nccc(NCc3cccc(-n4cccn4)c3)n2)c1 [Compound 5, [2-(5-Methoxy-pyridin-3-yl)-pyrimidin-4-yl]-(3-pyrazol-1-yl-benzyl)-amine]

pIC50: < 5.00
Compound: COc1cncc(-c2nccc(NCc3ccc4c(c3)OCCO4)n2)c1 [Compound 6, (2,3-Dihydro-benzo[1,4]dioxin-6-ylmethyl)-[2-(5-methoxy-pyridin-3-yl)-pyrimidin-4-yl]-amine]

pIC50: < 5.00
Compound: Fc1ccc(Oc2ccc(CNc3ccnc(-c4cncc(F)c4)n3)cc2)cc1 [Compound 7, [4-(4-Fluoro-phenoxy)-benzyl]-[2-(5-fluoro-pyridin-3-yl)-pyrimidin-4-yl]-amine]

pIC50: 6.00 to 7.00
Compound: COc1cncc(-c2nccc(NCc3ccc(Cl)cc3F)n2)c1 [Compound 16, (4-Chloro-2-fluoro-benzyl)-[2-(5-methoxy-pyridin-3-yl)-pyrimidin-4-yl]-amine]

pIC50: 5.00 to 6.00
Compound: COc1ccc(CNc2ccnc(-c3cncc(F)c3)n2)c(F)c1F [Compound 21, (2,3-Difluoro-4-methoxy-benzyl)-[2-(5-fluoro-pyridin-3-yl)-pyrimidin-4-yl]-amine]

pIC50: 5.00 to 6.00
Compound: COc1ccc(CNc2ccnc(-c3cncc(C(F)(F)F)c3)n2)c(F)c1F [Compound 24, (2,3-Difluoro-4-methoxy-benzyl)-[2-(5-trifluoromethyl-pyridin-3-yl)-pyrimidin-4-yl]-amine]

pIC50: 5.00 to 6.00
Compound: FC(F)(F)c1cncc(-c2nccc(NCc3cccc(-n4cccn4)c3)n2)c1 [Compound 29, (3-Pyrazol-1-yl-benzyl)-[2-(5-trifluoromethyl-pyridin-3-yl)-pyrimidin-4-yl]-amine]

pIC50: > 7.00
Compound: Fc1cc(Cl)ccc1CNc1ccnc(-c2cncc(Cl)c2)n1 [Compound 32, (4-Chloro-2-fluoro-benzyl)-[2-(5-chloro-pyridin-3-yl)-pyrimidin-4-yl]-amine]

pIC50: > 7.00
Compound: Fc1cncc(-c2nccc(NCc3ccc(Cl)cc3F)n2)c1 [Compound 33, (4-Chloro-2-fluoro-benzyl)-[2-(5-fluoro-pyridin-3-yl)-pyrimidin-4-yl]-amine]

pIC50: > 7.00
Compound: Fc1cc(Cl)ccc1CNc1ccnc(-c2cncc(C(F)(F)F)c2)n1 [Compound 35, (4-Chloro-2-fluoro-benzyl)-[2-(5-trifluoromethyl-pyridin-3-yl)-pyrimidin-4-yl]-amine]
